Measurements published in patent EP0452101B1, “Spiro bridged and unbridged heterocyclic compounds” (ISRAEL INSTITUTE FOR BIOLOGICAL RESEARCH, priority 1990, dated 1991).
Where two headings read alike, the source gives them in different places.

Assays:
m1 receptors = target: T1, m1 receptors (Rattus norvegicus, UniProt P08482); experiment: PI hydrolysis in CHO cells transfected with m1 receptors; type: cell-based; conditions: for EC50: CHO m1, PI hydrolysis; for PI (phosphoinositides hydrolysis): tested at 1mM
T1 construct: expressed in transfected cells; host or cells: CHO cells
T1 sequence (P08482 1-460): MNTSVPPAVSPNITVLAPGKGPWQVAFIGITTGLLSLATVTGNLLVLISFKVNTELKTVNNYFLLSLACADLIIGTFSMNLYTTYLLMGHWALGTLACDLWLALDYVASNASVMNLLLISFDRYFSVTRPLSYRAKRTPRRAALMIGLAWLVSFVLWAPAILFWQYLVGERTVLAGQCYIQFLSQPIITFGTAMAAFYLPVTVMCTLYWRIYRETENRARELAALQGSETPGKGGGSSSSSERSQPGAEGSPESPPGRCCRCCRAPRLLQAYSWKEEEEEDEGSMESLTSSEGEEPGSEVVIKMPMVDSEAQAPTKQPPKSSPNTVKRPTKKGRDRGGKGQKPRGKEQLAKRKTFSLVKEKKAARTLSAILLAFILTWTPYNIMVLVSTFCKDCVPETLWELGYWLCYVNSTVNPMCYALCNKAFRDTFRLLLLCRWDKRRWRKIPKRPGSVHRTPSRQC

[1] = system: rat cerebral cortex synaptosomes; experiment: Synaptosomal 3H-ACh release, basal and K+-evoked
Text: The effects of AF150 (and for comparison purposes, AF125, MeN-A-343 and oxotremorine) on basal- and K^+-evoked release of ^3H-ACh were studied on synaptosomes prepared from rat cerebral cortex using the methods described in detail by Pittel et al (J. Neurochem., 55: 665-672, 1990). […] On the other hand, the action of AF150 on presynaptic muscarinic receptors, causing an increase in K^+-evoked ACh release, can be considered either as an M2 antagonistic or an M1 agonistic effect. […] The existence of muscarinic autoreceptors that increase ACh release was manifested also in the PNS in smooth muscle preparation (Kilbinger and Nafziger, Naunyn Schmiedebergs Arch. Pharmacol. 328: 304-309, 1985).

[2] = target: T2, m3 subtype (SK-N-SH cells) (Homo sapiens, UniProt P20309); experiment: PI hydrolysis in SK-N-SH neuroblastoma cells; type: cell-based
T2 construct: endogenous in cells; host or cells: SK-N-SH human neuroblastoma cells
T2 sequence (P20309 whole entry): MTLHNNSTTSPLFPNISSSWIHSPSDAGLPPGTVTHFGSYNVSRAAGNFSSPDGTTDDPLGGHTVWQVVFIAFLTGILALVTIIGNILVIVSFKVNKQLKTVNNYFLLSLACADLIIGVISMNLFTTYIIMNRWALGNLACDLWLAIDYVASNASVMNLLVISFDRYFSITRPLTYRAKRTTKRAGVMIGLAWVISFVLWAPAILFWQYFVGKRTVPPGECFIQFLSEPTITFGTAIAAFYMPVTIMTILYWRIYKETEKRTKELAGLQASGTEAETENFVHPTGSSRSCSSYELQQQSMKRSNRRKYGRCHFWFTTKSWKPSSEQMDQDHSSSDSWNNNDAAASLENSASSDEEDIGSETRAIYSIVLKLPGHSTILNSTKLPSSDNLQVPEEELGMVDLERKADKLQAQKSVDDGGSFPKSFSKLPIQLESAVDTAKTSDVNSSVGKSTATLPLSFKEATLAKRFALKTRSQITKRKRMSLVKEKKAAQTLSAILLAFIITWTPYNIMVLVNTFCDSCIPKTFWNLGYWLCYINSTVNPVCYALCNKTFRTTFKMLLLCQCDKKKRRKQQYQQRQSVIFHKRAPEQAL
Procedure: (§1) The new compounds AF150, AF151, AF150(S) and AF125 were assayed for their ability to stimulate PI in CHO cells transfected with m1 and m3 receptors, respectively (Buck and Fraser, loc cit), and in cultured human neuroblastoma cells, line SK-N-SH, which express mainly the m3 subtype, but not the m1 subtype (Pinkas-Kramarski et al, Neurosci. Lett. 188: 335-340, 1990; Luthin et al Mol. Pharmacol. 34: 327-333, 1988). These compounds were also assayed on cultured PC12 cells which express mainly m4 subtype receptors and are coupled to inhibition of AC activity (Pinkas-Kramarski et al, loc cit).
(§2) Stimulation of PI breakdown was assayed using the method described by Stein et al (EMBO J. 7: 3031-3035, 1988), and modulation of AC activity was assayed by the method of Stein et al, loc cit and Pinkas-Kramarski et al (FEBS Lett., 239: 174-178, 1988). […]

M1 muscarinic receptor [3] = target: T3, M1 muscarinic receptor (Rattus norvegicus, UniProt P08482); experiment: Displacement of 3H-PZ from cortical binding sites, Tris/Mn buffer, with and without GppNHp; parameters: from tissue; host or cells: rat cerebral cortex homogenates; conditions: for KL-G / KH-G: ratio of low and high affinities without GppNHp
T3 sequence (P08482 1-460): T1 sequence (P08482 1-460)
Text: The binding of agonists to M1 muscarinic receptors and the effect of guanylyl imidophosphate (GppNHp). Agonists are known to be coupled with guanine nucleotide binding proteins (G proteins).
Non-hydrolyzable guanine nucleotides such as GppNHp dissociate the G protein from the receptor and decrease the affinity of the receptor for agonists but not for antagonists. […] Molec.
Under these conditions agonists of high efficacy ("full agonists") bind directly to the M1 receptor subtype with two affinities. […] The ratio of low and high affinities (KL/KH) of the M1 receptor may predict the relative efficacies of agonists to activate putative M1 receptor-mediated second messenger systems.
KH, KL, %H and %L are the apparent inhibition constants of the tested ligands for the high and low affinity sites, respectively. G is GppNHp (guanylyl imidodiphosphate), and was used in 0.1 mM concentration. Displacement of ^3H-PZ from cortical binding sites was performed in Tris/Mn buffer (pH 7.4) for one hour at 25°C; the buffer included 1 mM EDTA and 2mM Mn^++ ions. […] The binding data were analyzed using a GraphPAD program and were fitted to one or two components. Values are means from 1-3 experiments carried out in triplicates.

[4] = target: T4, m4 subtype receptors (PC12 cells) (Rattus norvegicus, UniProt P08485); experiment: Inhibition of adenylate cyclase activity in PC12 cells; type: cell-based; conditions: for EC50: PC12 m4, AC activity; for AC (adenylate cyclase activity): PC12 m4, tested at 1mM
T4 construct: endogenous in cells; host or cells: PC12 cells
T4 sequence (P08485 1-478): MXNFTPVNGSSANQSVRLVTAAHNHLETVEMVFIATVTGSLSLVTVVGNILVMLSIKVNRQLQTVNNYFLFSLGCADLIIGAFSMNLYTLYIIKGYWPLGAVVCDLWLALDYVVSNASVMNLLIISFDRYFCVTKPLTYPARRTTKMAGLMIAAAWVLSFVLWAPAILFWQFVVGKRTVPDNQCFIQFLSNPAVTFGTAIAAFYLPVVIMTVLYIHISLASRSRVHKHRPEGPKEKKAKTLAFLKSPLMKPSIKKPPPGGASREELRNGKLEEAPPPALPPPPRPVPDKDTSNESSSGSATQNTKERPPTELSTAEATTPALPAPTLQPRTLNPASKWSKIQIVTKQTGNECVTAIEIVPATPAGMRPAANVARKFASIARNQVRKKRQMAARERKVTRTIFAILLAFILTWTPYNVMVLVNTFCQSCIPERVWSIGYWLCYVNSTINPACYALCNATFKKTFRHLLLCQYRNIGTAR
Procedure: as §1, §2

M1 muscarinic receptor [5] = target: T3, M1 muscarinic receptor; experiment: Potentiation of AC activity (basal and forskolin-stimulated cAMP) via m1 receptors; type: cell-based; parameters: expressed in transfected cells; host or cells: CHO cells
Text: Stimulation of m1 and m3 receptors elicit dose-dependent increases in the hydrolysis of phosphoinositides (PI). Agonist activation of the m1 receptor also elicits increases in basal and forskolin-stimulated cAMP, whereas the m3 receptor has no effect on intracellular cAMP levels (Buck and Fraser, Biochem. Biophys. Res. Comm. 173: 662-672, 1990). Stimulation of the m2 and m4 receptors by muscarinic agonists leads to preferential inhibition of adenylate cyclase (AC) activity (Mei et al, Life Sciences, 45: 1831-1851, 1989).

[6] = +G (0.1 mM GppNHp), read-out: KH
[7] = +G (0.1 mM GppNHp), read-out: KL
[8] = -G (without GppNHp), read-out: KH

Row | SMILES | K+-evoked 3H-ACh release ([1]; 1.0 mM) | PI, % of carbachol effect ([2]; SK-N-SH m3) | Ki (M1 muscarinic receptor [3]; [6]) | Ki (M1 muscarinic receptor [3]; [7]) | Ki (M1 muscarinic receptor [3]; [8]) | Ki (M1 muscarinic receptor [3]; -G, read-out: KL) | EC50 (m1 receptors) | PI (phosphoinositides hydrolysis) (m1 receptors; CHO m1) | EC50 [4] | AC (adenylate cyclase activity) [4] | increase in basal cAMP (M1 muscarinic receptor [5]) | increase in forskolin-stimulated cAMP (M1 muscarinic receptor [5]) | %L (M1 muscarinic receptor [3]; +G (0.1 mM GppNHp)) | % H (M1 muscarinic receptor [3]; -G) | %L (M1 muscarinic receptor [3]; -G) | KL-G / KH-G (M1 muscarinic receptor [3]) | other results
1 | CC1=NCC2(CN3CCC2CC3)O1 (racemic) [AF125, 2-Methyl-spiro(1,3 oxazoline-5,3')quinuclidine] | 78±9 (2) % | 20% | 9 µM | 12 µM | 9 µM | 12 µM | – | – | – | – | – | – | – | – | – | – | PI, % of carbachol effect (m1 receptors; CHO m1): 14%; interference with the effect of carbachol [2]: 10-20%; stimulation of phosphoinositides hydrolysis relative to carbachol [2]: 20-25%
2 | CC1=NCC2(CCN(C)CC2)O1 [AF150, 2-Methyl-spiro(1,3-oxazoline-5,4')-1'-methylpiperidine] | 115±4 (6) p<0.01% | 40% | – | 21 µM | 0.11 µM | 11 µM | 13 µM | +++ | 1 µM | +++ | 33% | 76% | 100% | 21% | 83% | 100 | Basal 3H-ACh release ([1]; 0.1 mM): 121%; K+-evoked 3H-ACh release ([1]; 0.1 mM): 110%; EC50 ([2]; SK-N-SH m3, PI hydrolysis): 3 µM; PI (phosphoinositides hydrolysis) ([2]; SK-N-SH m3, tested at 1mM): +
3 | CC1=NC2(CCN(C)CC2)CO1 [AF151, 1-methylpiperidine-4-spiro-4'-(2'-methyl-1',3'-oxazoline)] | – | – | 4.6 µM | 59 µM | 3.7 µM | 4.8 µM | 54 µM | +++ | 1 µM | +++ | 33% | 76% | 83% | 39% | 61% | 13 | % H (M1 muscarinic receptor [3]; +G (0.1 mM GppNHp)): 17%
